What was measured:
LC3 (autophagic flux) = experiment: Autophagic flux and LC3 stained area in STHdh 111/111 cells; format: cell-based, mouse
Protocol: Staining - Cells were permeabilized with 0.3% Triton X-100 in 4° C. PBS (pH 7.4 from ThermoFisher) for 10 minutes. Then the cells were washed two times with 4° C. PBS. Subsequently, cells are blocked with 3% NGS (normal goat serum from Thermo Fisher) in 4° C. PBS for 1 hour. Cells were incubated with primary antibodies in blocking buffer (PBS, 3% NGS, 0.02% NaN3) over night at 4° C. Primary antibodies were mouse antipolyglutamine monoclonal antibody 3B5H10 (Sigma-Aldrich) at 1:250 dilution and Guinea Pig anti-MAP2 polyclonal antibody (Synaptic Systems) at 1:500 dilution. […]
Fluorescence Imaging - Imaging sessions were performed on a confocal microscope system (Carl Zeiss Microscopy) equipped with a dual spinning disk unit (Yokogawa). […] The fluorescence images obtained of the immunofluorescence labelled tissue sections were quantified with the help of the “Image Processing and Analysis in Java” or short ImageJ software distributed under the GNU General Public License by the NIH (Rueden, C.T. et al., BMC Bioinformatics. 2017 Nov 29;18(1):529), i.e. the edition used was the Fiji distribution (Schindelin, J. et al., Nature methods. 2012 Jun 28;9(7):676-82). […]
Autophagic flux was calculated as the area stained with LC3 antibody per cell in STHdh 111/111 with autophagy inhibitor NH4Cl minus area stained with LC3 antibody per cell in STHdh 111/111 without the autophagy inhibitor NH4Cl.

[1] = Microsomal stability in humans; format: in vitro ADME; settings: humans versus mice
[2] = system: STHdh 111/111 striatal cells; experiment: Cell viability (CellTiter Glo) of heat shocked STHdh 111/111 striatal cells; format: cell-based, mouse
[3] = Body weight of R6/2 mice under chronic administration; format: in vivo
Protocol: (§1) Methods - Total of 20 female and male R6/2 mice and 10 female and male wild-type littermate control mice (WT) were used in the study. The mice were genotyped and the R6/2 mice were divided into different treatment groups based on their litter and baseline body weight. The treatment with Vehicle or Compound 22(33 mg/kg; 5 ml/kg, i.p. QD) was started at 4 weeks of age after the baseline behavioral tests (FIG. 10). Body weights were measured at 3 weeks of age and twice a week until the end of the study.
The experimental groups were: • Group 1) 10 wild-type mice (mixed gender) treated with Vehicle (5 ml/kg, i.p., QD) starting at 4 weeks of age • Group 2) 10 R6/2 mice (mixed gender) treated with Vehicle (5 ml/kg, i.p., QD) starting at 4 weeks of age • Group 3) 10 R6/2 mice (mixed gender) treated with Compound 22 (33 mg/kg; 5 ml/kg, i.p. QD) starting at 4 weeks of age
44.3.7 - Compound Delivery and Dosing - Treatment with Compound 22 (33 mg/kg; 5 ml/kg, i.p. QD) or Vehicle was started at age week 4 and continued until the 12 weeks of age. The test articles were handled and stored and the dose formulations were prepared according to detailed instructions provided by the Sponsor.
44.3.8 - Body Weight - Body weight was measured starting at 3 weeks of age before treatment onset and two times per week on the same day (on Monday and Friday) until the end of the study.

[4] = system: R6/2 mice of Huntington's disease; experiment: Grip strength in R6/2 mice; format: in vivo; settings: 33 mg/kg i.p. QD; 4-12 weeks of age
Protocol: as §1
The experimental groups were: • Group 1) 10 wild-type mice (mixed gender) treated with Vehicle (5 ml/kg, i.p., QD) starting at 4 weeks of age • Group 2) 10 R6/2 mice (mixed gender) treated with Vehicle (5 ml/kg, i.p., QD) starting at 4 weeks of age • Group 3) 10 R6/2 mice (mixed gender) treated with Compound 22 (33 mg/kg; 5 ml/kg, i.p. QD) starting at 4 weeks of age […]
Mice were taken to the experimental room and, one at a time, were placed on the grip strength apparatus (San Diego Instruments, San Diego, USA) in such a way that the animal grabbed a small mesh grip with its forepaws. […] Five scores were recorded per animal in consecutive sequence, and the average of three best scores for each animal was used for the results. […]

Exon1 Q46 protein = target: T1, Exon1 Q46 protein (Homo sapiens, UniProt P42858, INS38QQQQQQQQQQQQQQQQQQQQQQQQQ); experiment: Kd to Exon1 Q46 protein; format: binding
T1 construct: fused on or other part: E. coli thioredoxin (TRX) at the N-terminus as a solubility handle; linker […]; C-terminal GSG-His6 tag

mHTT = mHTT (Mus musculus, UniProt P42859, DEL28-30/G47A/INS49LLPQPQPP/INS60VA/L56P/P40L); experiment: Diffuse mHTT levels in heat shocked STHdh 111/111 striatal cells by immunocytochemistry; settings: STHdh 111/111; in comparison to untreated cells
Protocol: Pre-Treatment of striatal cell line - First the medium was removed and new DMEM (DMEM, high glucose, HEPES, no phenol red) medium, supplemented with 10% fetal bovine serum (FBS), 1% Penicillin-Streptomycin, containing 10 µM compound was added. The cells were incubated at 33° C. for 24 hours.
Heat shock - Cells were heat shocked for 3 hours at 41° C.
Treatment - Medium was removed and new DMEM (DMEM, high glucose, HEPES, no phenol red) medium, supplemented with 1% fetal bovine serum (FBS), 1% Penicillin-Streptomycin, containing 10 µM compound was added. The cells were incubated at 33° C. for 48 hours.
Staining - Cells were permeabilized with 0.3% Triton X-100 in 4° C. PBS (pH 7.4 from ThermoFisher) for 10 minutes. Then the cells were washed two times with 4° C. PBS. Subsequently, cells are blocked with 3% NGS (normal goat serum from Thermo Fisher) in 4° C. PBS for 1 hour. Cells were incubated with primary antibodies in blocking buffer (PBS, 3% NGS, 0.02% NaN3) over night at 4° C. Primary antibodies were mouse antipolyglutamine monoclonal antibody 3B5H10 (Sigma-Aldrich) at 1:250 dilution and Guinea Pig anti-MAP2 polyclonal antibody (Synaptic Systems) at 1:500 dilution. 3B5H10 binds to diffuse mHTT. Diffuse mHTT is a monomeric and small oligomeric mHTT.
Cells were washed 2 times with 4° C. PBS, and then incubated with secondary antibodies at 1:2000 dilution in blocking buffer for 1 hour at room temperature. […] Cells were washed 2 times with 4° C. PBS, and then the nuclei were counterstain with DAPI (ThermoFisher) for 10 min at room temperature in the dark. Cells were washed 2 times with 4° C. PBS, and then 4° C. PBS was added to cells and then images were acquired.
Fluorescence Imaging - Imaging sessions were performed on a confocal microscope system (Carl Zeiss Microscopy) equipped with a dual spinning disk unit (Yokogawa). All components of the imaging system were controlled via the ZEN 2 software suite (Carl Zeiss Microscopy). The laser lines used were 405 nm, 488 nm and 639 nm to excite DAPI or the respective fluorophores. […] Nested t test was performed to calculate the significance amongst repeated measurements using GraphPad Prism software.
ST HDH Q7/7 (CH00097, Coriell Institute) striatal derived cell line from a knock in transgenic mouse containing HTT loci with a humanized Exon 1 containing 7 polyglutamine repeats.
EC 50 value was determined with non-linear regression.

T1 sequence (P42858 whole entry, looked up, stated change not applied, the tested form may be a part): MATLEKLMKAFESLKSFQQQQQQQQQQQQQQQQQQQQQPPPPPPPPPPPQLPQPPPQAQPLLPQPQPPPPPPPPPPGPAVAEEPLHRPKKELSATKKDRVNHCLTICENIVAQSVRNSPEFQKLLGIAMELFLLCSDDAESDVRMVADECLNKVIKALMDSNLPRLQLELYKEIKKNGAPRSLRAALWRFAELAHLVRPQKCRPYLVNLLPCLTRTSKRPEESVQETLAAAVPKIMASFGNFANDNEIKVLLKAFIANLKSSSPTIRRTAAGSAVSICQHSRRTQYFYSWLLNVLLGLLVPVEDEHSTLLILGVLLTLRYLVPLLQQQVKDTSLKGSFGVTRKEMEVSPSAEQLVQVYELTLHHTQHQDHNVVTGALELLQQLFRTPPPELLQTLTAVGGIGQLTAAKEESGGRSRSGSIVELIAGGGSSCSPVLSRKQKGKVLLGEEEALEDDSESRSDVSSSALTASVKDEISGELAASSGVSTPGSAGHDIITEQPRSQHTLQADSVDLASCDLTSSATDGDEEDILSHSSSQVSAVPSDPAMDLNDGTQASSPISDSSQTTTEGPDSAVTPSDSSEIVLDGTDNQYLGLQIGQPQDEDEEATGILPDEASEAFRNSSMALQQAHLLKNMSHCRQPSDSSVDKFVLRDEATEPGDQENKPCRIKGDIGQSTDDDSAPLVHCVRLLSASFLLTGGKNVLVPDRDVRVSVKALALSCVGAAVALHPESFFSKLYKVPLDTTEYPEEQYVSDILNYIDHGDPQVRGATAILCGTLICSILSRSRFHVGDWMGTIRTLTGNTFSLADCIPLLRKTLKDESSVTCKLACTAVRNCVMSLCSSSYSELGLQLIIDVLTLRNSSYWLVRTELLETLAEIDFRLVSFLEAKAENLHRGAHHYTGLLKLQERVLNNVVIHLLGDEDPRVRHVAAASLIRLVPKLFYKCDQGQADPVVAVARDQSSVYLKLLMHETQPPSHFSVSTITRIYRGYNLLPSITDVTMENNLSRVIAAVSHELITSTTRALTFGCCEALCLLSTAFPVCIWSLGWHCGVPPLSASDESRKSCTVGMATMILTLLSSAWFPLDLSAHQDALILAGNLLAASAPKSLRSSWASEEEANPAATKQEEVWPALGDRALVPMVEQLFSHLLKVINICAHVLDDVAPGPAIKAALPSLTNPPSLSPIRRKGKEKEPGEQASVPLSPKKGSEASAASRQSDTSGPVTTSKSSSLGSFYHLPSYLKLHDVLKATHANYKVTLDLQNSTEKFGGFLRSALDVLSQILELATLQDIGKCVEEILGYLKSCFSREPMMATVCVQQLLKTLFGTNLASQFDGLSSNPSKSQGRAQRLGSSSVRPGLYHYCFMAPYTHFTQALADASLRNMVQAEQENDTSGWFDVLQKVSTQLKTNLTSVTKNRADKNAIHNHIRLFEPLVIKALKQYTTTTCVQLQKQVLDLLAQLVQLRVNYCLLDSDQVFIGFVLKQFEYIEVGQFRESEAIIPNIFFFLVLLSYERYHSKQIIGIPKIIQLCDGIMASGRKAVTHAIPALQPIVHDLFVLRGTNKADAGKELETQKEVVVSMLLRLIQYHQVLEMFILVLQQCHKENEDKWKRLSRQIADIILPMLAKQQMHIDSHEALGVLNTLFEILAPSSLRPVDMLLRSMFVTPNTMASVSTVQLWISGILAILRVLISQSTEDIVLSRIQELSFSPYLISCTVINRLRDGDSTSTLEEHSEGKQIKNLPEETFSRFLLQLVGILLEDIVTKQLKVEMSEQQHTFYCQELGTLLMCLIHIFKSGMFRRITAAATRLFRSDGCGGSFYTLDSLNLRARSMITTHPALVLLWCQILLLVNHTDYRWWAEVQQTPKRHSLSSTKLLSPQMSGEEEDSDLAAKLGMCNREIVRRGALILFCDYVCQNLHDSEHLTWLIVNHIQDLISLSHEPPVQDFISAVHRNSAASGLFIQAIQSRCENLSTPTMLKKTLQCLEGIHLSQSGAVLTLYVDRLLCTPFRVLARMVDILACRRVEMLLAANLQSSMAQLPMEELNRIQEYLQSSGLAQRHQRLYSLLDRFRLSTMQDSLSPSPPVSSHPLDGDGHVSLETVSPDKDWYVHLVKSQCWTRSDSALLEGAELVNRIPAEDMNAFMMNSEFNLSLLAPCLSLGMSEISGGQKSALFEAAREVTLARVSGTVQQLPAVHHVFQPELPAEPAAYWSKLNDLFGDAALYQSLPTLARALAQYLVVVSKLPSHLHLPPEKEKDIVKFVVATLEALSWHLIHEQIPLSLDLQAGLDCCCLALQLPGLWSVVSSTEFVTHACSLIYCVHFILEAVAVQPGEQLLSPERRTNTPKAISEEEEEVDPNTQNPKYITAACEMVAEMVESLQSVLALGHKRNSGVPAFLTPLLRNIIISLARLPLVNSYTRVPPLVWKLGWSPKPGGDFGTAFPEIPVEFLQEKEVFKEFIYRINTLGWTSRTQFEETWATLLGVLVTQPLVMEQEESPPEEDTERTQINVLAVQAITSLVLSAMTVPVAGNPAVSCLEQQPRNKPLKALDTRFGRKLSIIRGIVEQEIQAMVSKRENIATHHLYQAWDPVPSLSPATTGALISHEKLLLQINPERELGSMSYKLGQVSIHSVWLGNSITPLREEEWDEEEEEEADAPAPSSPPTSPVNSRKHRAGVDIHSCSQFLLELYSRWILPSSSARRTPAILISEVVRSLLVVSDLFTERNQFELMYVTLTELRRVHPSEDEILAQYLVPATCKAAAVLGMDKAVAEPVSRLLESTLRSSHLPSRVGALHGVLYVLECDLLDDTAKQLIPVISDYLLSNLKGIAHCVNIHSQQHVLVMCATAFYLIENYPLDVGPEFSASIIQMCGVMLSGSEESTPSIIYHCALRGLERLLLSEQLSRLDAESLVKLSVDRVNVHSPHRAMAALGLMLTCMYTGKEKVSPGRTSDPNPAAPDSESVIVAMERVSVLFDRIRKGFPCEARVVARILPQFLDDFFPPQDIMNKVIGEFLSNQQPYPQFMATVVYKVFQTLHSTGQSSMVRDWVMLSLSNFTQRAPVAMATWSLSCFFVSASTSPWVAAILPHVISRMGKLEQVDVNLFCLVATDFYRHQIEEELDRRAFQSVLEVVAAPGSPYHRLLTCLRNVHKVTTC

SMILES: Cc1[nH]c2ccc(C(=O)NCCN(C(C)C)C(C)C)cc2c1C [Compound 22]
- autophagic flux (LC3 (autophagic flux); STHdh 111/111, LC3 area with NH4Cl minus without NH4Cl): positive autophagic flux
- LC3 stained area (LC3 (autophagic flux); STHdh 111/111 neurons): decreased
- microsomal stability in humans in comparison to mice [1]: 20 times
- viability at 10 µM ([2]; Mus musculus, STHdh 111/111, 10 µM, 48 hours treatment, read-out: Cell Viability striatal cells 3h heat shocked): 102%
- cell viability in comparison to pre-heat shock cell viability ([2]; STHdh 111/111, 48 hours after 3 hours heat shock): 125%
- cell viability at 24 hours after treatment ([2]; STHdh 111/111 after heat shock, versus STHdh 7/7 control cells): almost equivalent to the cell viability of STHdh 7/7 control cells
- body weight versus vehicle treated R6/2 mice ([3]; 33 mg/kg i.p. QD from 4 to 12 weeks of age, pooled genders, females, males): no significant differences
- body weight loss versus untreated female R6/2 mice ([3]; female R6/2 mice, week 12, 33 mg/kg i.p. QD): significantly improved
- body weight loss improvement versus untreated male R6/2 mice ([3]; male R6/2 mice, week 12, 33 mg/kg i.p. QD): not observed
- grip strength versus vehicle treated R6/2 mice [4]: no significant differences
- Kd (Exon1 Q46 protein): 700 nM
- Nuclear diffuse mHTT reduced by (mHTT): 32%

— patent US20230218573A1, “INDOLE COMPOUNDS FOR THE TREATMENT OF NEURODEGENERATIVE DISEASES” (GALYAN BIO, INC., priority 2020, published 2023)
